Assay results as given in patent US7456218B2, “3-(4-benzyloxyphenyl) propanoic acid derivatives” (Takeda Pharmaceutical Company Limited, priority 2003, dated 2008).

system: not given; assay: not given; details: not given

melting point | SMILES
55 to 56 °C | Cc1cccc(COc2cc(C)c(-c3cccc(COc4ccc(CCC(=O)O)c(F)c4)c3)c(C)c2)n1.Cl [Example 97, 3-[4-({2′,6′-dimethyl-4′-[(6-methylpyridin-2-yl)methoxy]biphenyl-3-yl}methoxy)-2-fluorophenyl]propanoic acid hydrochloride]
124 to 125 °C | Cc1cc(OS(C)(=O)=O)cc(C)c1-c1cccc(COc2ccc(CCC(=O)O)c(F)c2)c1 [Example 102, 3-[4-({2′,6′-dimethyl-4′-[(methylsulfonyl)oxy]biphenyl-3-yl}methoxy)-2-fluorophenyl]propanoic acid]
112 to 113 °C | Cc1cc(OCC2(C)COC2)cc(C)c1-c1cccc(COc2ccc(CCC(=O)O)c(F)c2)c1 [Example 116, 3-[4-({2′,6′-dimethyl-4′-[(3-methyloxetan-3-yl)methoxy]biphenyl-3-yl}methoxy)-2-fluorophenyl]propanoic acid]

target: T1, human GPR40 (Homo sapiens, UniProt O14842); assay: Determination of EC50 against human GPR40: changes in intracellular calcium concentration by FLIPR in CHO cells stably expressing human GPR40; type: cell-based; details: CHO cell line stably expressing human GPR40, Fluo3-AM, read-out: EC50 (Receptor Function Modulating Action On GPR40)
T1 construct: expressed in transfected cells
T1 sequence (O14842 whole entry): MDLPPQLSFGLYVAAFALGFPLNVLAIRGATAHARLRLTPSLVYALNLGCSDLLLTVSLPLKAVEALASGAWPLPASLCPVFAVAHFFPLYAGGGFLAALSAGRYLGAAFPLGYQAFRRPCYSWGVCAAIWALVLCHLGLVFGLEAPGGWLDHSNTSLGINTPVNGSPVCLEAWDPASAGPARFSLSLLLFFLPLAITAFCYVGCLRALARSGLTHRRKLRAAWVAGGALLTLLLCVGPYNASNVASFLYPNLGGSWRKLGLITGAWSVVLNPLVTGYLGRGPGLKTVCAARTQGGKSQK
Experimental: Determination of EC50 of the Compound of the Present Invention Against Human GPR40
For determination of EC50, CHO cell line that stably expressed human GPR40 was used. Unless otherwise indicated, the CHO cell line was cultured using α-MEM medium (Invitrogen) containing 10% fetal calf serum (Invitrogen).
The cells cultured to nearly confluent were rinsed with PBS (Invitrogen) on the previous day of the assay, peeled off with 0.05% Trypsin-EDTA solution (Invitrogen) and recovered by centrifugation. The number of the obtained cells was counted, and the cells were diluted such that 3×10^5 cells were contained per 1 mL of the medium, dispensed to a black welled 96-well plate (coster) by 100 μL per well and cultured overnight in a CO2 incubator. Various test compounds were added to the CHO cells thus prepared, and the changes in the intracellular calcium concentration was measured using FLIPR (Molecular Device). The below-mentioned pre-treatment was applied to measure changes in the intracellular calcium concentration by FLIPR.
An assay buffer for adding a fluorescence dye Fluo3-AM (DOJIN) to the cells, or for washing the cells immediately before FLIPR assay was prepared. To a solution of 1M HEPES (pH 7.4, DOJIN, 20 mL) added to HBSS (Invitrogen, 1000 mL) (hereinafter HBSS/HEPES solution) was added a solution (10 mL) obtained by dissolving probenecid (Sigma, 710 mg) in 1N NaOH (5 mL), and adding and mixing an HBSS/HEPES solution (5 mL), and the resulting solution was used as an assay buffer. Fluo3-AM (50 μg) was dissolved in dimethylsulfoxide (Wako, 21 μL), and an equivalent amount of 20% pluronic acid (Molecular Probes) was added and mixed. The solution was added to the assay buffer (10.6 mL) supplemented with fetal calf serum (105 μL) to give a fluorescence dye solution. […], the medium of the CHO cells newly inoculated to the black welled 96-well plate was removed, the fluorescence dye solution was immediately dispensed by 100 μL per well and the cells were cultured in a CO2 incubator for 1 hr to allow intake of the fluorescence dye by the cells. The cells after the culture were washed with the above-mentioned assay buffer and set on FLIPR. The test compound was diluted with dimethylsulfoxide in advance, dispensed to polypropylene 96-well plate (sample plate) by 2 μL, and cryopreserved at −20° C. To the thawed sample plate was added an assay buffer containing 0.015% CHAPS (DOJIN) by 198 μL, and simultaneously set on FLIPR together with the cell plate. After the aforementioned pre-treatment, changes in the intracellular calcium concentration upon addition of various test compounds was measured by FLIPR. Based on the results, a dose-response curve of each test compound was formed and EC50 was calculated.

SMILES | EC50
Cc1cc(OCc2ccccc2)cc(C)c1-c1cccc(COc2ccc(CCC(=O)O)cc2)c1 [Example 39, 3-[4-[[4′-(benzyloxy)-2′,6′-dimethylbiphenyl-3-yl]methoxy]phenyl]propanoic acid] | 0.032 µM
Cc1cc(C)c(-c2cccc(COc3ccc(CCC(=O)O)c(F)c3)c2)c(COc2ccc(F)cc2)c1 [Example 54, 3-{2-fluoro-4-[(2′-(4-fluorophenoxymethyl)-4′,6′-dimethylbiphenyl-3-yl)methoxy]phenyl}propanoic acid] | 0.049 µM
CCS(=O)(=O)CCOc1cc(C)c(-c2cccc(COc3ccc(CCC(=O)O)c(F)c3)c2)c(C)c1 [Example 86, 3-[4-({4′-[2-(ethylsulfonyl)ethoxy]-2′,6′-dimethylbiphenyl-3-yl}methoxy)-2-fluorophenyl]propanoic acid] | 0.032 µM
Cc1cc(OCCCN2CCCC2=O)cc(C)c1-c1cccc(COc2ccc(CCC(=O)O)c(F)c2)c1 [Example 90, 3-[4-({2′,6′-dimethyl-4′-[3-(2-oxopyrrolidin-1-yl)propoxy]biphenyl-3-yl}methoxy)-2-fluorophenyl]propanoic acid] | 0.034 µM
Cc1cccc(COc2cc(C)c(-c3cccc(COc4ccc(CCC(=O)O)c(F)c4)c3)c(C)c2)n1.Cl [Example 97, 3-[4-({2′,6′-dimethyl-4′-[(6-methylpyridin-2-yl)methoxy]biphenyl-3-yl}methoxy)-2-fluorophenyl]propanoic acid hydrochloride] | 0.023 µM
Cc1cc(OC2CCS(=O)(=O)CC2)cc(C)c1-c1cccc(COc2ccc(CCC(=O)O)c(F)c2)c1 [Example 114, 3-[4-({4′-[(1,1-dioxidotetrahydro-2H-thiopyran-4-yl)oxy]-2′,6′-dimethylbiphenyl-3-yl}methoxy)-2-fluorophenyl]propanoic acid] | 0.02 µM

More lines, now with the values ahead:

EC50 | SMILES
0.017 µM | Cc1cc(OCC2(O)CCS(=O)(=O)CC2)cc(C)c1-c1cccc(COc2ccc(CCC(=O)O)c(F)c2)c1 [Example 100, 3-[2-fluoro-4-({4′-[(4-hydroxy-1,1-dioxidotetrahydro-2H-thiopyran-4-yl)methoxy]-2′,6′-dimethylbiphenyl-3-yl}methoxy)phenyl]propanoic acid]
0.016 µM | CCOCCOc1cc(C)c(-c2cccc(COc3ccc(CC(F)(F)C(=O)O)cc3)c2)c(C)c1 [Example 75, 3-(4-{[4′-(2-ethoxyethoxy)-2′,6′-dimethylbiphenyl-3-yl]methoxy}phenyl)-2,2-difluoropropanoic acid]
0.015 µM | Cc1cc(OS(C)(=O)=O)cc(C)c1-c1cccc(COc2ccc(CCC(=O)O)c(F)c2)c1 [Example 102, 3-[4-({2′,6′-dimethyl-4′-[(methylsulfonyl)oxy]biphenyl-3-yl}methoxy)-2-fluorophenyl]propanoic acid]
0.011 µM | COc1ccc(COc2ccc(CCC(=O)O)cc2)cc1-c1ccc(C)cc1C [Example 49, 3-(4-((6-methoxy-2′,4′-dimethylbiphenyl-3-yl)methoxy)phenyl)propanoic acid]
0.01 µM | Cc1cc(OCCc2scnc2C)ccc1-c1cccc(COc2ccc(CCC(=O)O)cc2)c1 [Example 14, 3-[4-({2′-methyl-4′-[2-(4-methyl-1,3-thiazol-5-yl)ethoxy]biphenyl-3-yl}methoxy)phenyl]propanoic acid]
0.0061 µM | Cc1cc(Cl)ccc1-c1cccc(COc2ccc(CCC(=O)O)cc2)c1 [Example 33, 3-[4-[(4′-chloro-2′-methylbiphenyl-3-yl)methoxy]phenyl]propanoic acid]
